Like-named read-outs stand apart in the source and are kept apart here.
Key:
[1] = target: α-chymotrypsin from bovine pancreas (Bos taurus, UniProt P00766); test: chymotrypsin inhibition assay; type: biochemical; design: key to Enzyme Inhibition Chymotrypsin (activity class): - not active; */** small/medium activity; */** small/medium activity; details: for Enzyme Inhibition Chymotrypsin (activity class): class symbols
Thrombin = target: T1, Thrombin (Bos taurus, UniProt P00735); test: thrombin inhibition assay; type: biochemical; design: key: - not active; */** small/medium activity; */** small/medium activity; details: highest concentration 45.4 μg/mL
T1 construct: purchased Sigma-Aldrich T4648

[2] = target: T2, elastase from porcine pancreas (Sus scrofa, UniProt P00772); test: elastase inhibition assay; type: biochemical; design: key: - not active; */** small/medium activity; */** small/medium activity; details: highest concentration 45.4 μg/mL
T2 construct: purchased Sigma-Aldrich E0258; host or cells: porcine pancreas

[3] = test system: MCF-7 breast cancer cells; test: MTT cytotoxicity assay; type: cell-based; details: 24-h exposure, 0 to 500 μg/mL
Procedure: For the test, two CPs were selected: Arg^2-containing CP962 and Tyr^2-containing CP985. MCF-7 breast cancer cells were seeded at 7.5 × 10^3 cells/100 μL in a 96-well plates and incubated at 37 °C, 5% CO2 for 24 h. The cells were then treated for a further 24 h with CP962 and CP985 (0 to 500 μg/mL). After 24 h, sterile-filtered 3-(4,5-dimethylthiazol-2-yl)-2,5-diphenyltetrazolium bromide solution (MTT; 1 mg/mL) was added to each well. After 4 h incubation at 37 °C in the dark, the MTT solution was removed and formazan crystals solubilized in DMSO. The plates were shaken for 20 min, in the dark, at room temperature and absorbance was measured at 560 nm (Synergy/HT, BIOTEK, Wnooski, VT, USA). For each CP, three independent experiments were carried out and each treatment consisted of six replicates per plate. Bar charts were used to represent the viability of MCF-7 cells treated with CP962 and CP985, compared to the control (i.e., untreated cells) that represented 100% cell viability.

[4] = target: T3, protein phosphatase 1 (PP1) (Oryctolagus cuniculus, UniProt P62139); test: protein phosphatase 1 inhibition assay; type: biochemical; design: key: - not active; */** small/medium activity; */** small/medium activity; details: highest concentration 45.4 μg/mL
T3 construct: purchased England Biolabs, Hitchin, UK (New England Biolabs) 754S

[5] = target: T4, trypsin from porcine pancreas (Sus scrofa, UniProt P00761); test: trypsin inhibition assay; type: biochemical; design: key: - not active; */** small/medium activity; */** small/medium activity; details: class symbols
T4 construct: purchased Sigma-Aldrich T0303; host or cells: porcine pancreas

[6] = target: human leukocyte elastase (HLE); design: method as in PMID 18924217; details: activity of extracts; read-out: Enzyme Inhibition HLE IC50; cited from earlier work
Chymotrypsin = details: cited from earlier work
small crustaceans = test system: small crustaceans; design: method as in doi:10.2216/i0031-8884-35-6S-111.1, PMID 20405925, PMID 12662108; details: cited from earlier work
mice = details: administered intraperitoneally at concentrations up to 1000 µg/kg b.w.; cited from earlier work

T3 sequence (P62139 whole entry): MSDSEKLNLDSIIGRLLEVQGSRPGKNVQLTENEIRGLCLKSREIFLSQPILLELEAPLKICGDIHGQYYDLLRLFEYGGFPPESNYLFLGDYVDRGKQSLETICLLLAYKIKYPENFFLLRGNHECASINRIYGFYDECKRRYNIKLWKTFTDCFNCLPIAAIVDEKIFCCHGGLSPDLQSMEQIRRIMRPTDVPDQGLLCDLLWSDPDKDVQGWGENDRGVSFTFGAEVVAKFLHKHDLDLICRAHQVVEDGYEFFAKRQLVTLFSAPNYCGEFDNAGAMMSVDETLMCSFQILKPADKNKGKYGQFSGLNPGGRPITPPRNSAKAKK
T4 sequence (P00761 9-231): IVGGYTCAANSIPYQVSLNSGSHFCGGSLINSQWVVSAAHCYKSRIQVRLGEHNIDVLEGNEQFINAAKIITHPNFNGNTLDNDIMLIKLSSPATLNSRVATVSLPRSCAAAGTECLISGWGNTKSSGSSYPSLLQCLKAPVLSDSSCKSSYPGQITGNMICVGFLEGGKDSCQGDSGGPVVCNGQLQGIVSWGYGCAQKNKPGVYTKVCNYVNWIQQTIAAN
T2 sequence (P00772 27-266): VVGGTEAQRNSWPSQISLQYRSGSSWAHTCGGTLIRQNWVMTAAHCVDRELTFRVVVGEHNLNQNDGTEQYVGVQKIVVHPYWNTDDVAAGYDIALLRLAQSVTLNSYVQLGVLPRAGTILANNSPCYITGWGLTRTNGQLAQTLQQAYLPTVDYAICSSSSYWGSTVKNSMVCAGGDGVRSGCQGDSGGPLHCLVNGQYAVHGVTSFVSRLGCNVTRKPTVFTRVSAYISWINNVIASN

Compound | Enzyme Inhibition Chymotrypsin (activity class) [1] | Enzyme Inhibition Thrombin (activity class) (Thrombin) | Enzyme Inhibition Elastase (activity class) [2] | Enzyme Inhibition Protein Phosphatase 1 (activity class) [4] | Enzyme Inhibition Trypsin (activity class) [5] | IC50 [6] [nM] | other results
CCCC(=O)NC(CC(=O)O)C(=O)NC1C(=O)NC(CCCNC(=N)N)C(=O)NC2CCC(O)N(C2=O)C(Cc2ccccc2)C(=O)N(C)C(Cc2ccccc2)C(=O)NC(C(C)C)C(=O)OC1C (stereo not shown) [CP 962, [Thr+Arg+Ahp+Phe+MePhe+Val]Asp+BA] | - | - | - | - | ** |  | cytotoxic effects on MCF-7 cells (MTT) [3]: no cytotoxic effects
CCCC(=O)N[C@@H](CC(=O)O)C(=O)N[C@@H]1C(=O)N[C@@H](Cc2ccc(O)cc2)C(=O)N[C@H]2CC[C@@H](O)N(C2=O)[C@@H](Cc2ccccc2)C(=O)N(C)[C@@H](Cc2ccccc2)C(=O)N[C@@H](C(C)C)C(=O)O[C@@H]1C [CP 969, [Thr+Tyr+Ahp+Phe+MePhe+Val]Asp+BA] | ** | - | - | - | - |  | 
CCCC(=O)N[C@@H](CC(=O)O)C(=O)N[C@@H]1C(=O)N[C@@H](CCCNC(=N)N)C(=O)N[C@H]2CC[C@@H](O)N(C2=O)[C@@H](Cc2ccccc2)C(=O)N(C)[C@@H](Cc2ccc(O)cc2)C(=O)N[C@@H](C(C)C)C(=O)O[C@@H]1C [CP 978, [Thr+Arg+Ahp+Phe+MeTyr+Val]Asp+BA] |  | - | - | - |  |  | 
CCCC(=O)NC(CC(=O)O)C(=O)NC1C(=O)NC(Cc2ccc(O)cc2)C(=O)NC2CCC(O)N(C2=O)C(Cc2ccccc2)C(=O)N(C)C(Cc2ccc(O)cc2)C(=O)NC(C(C)C)C(=O)OC1C (stereo not shown) [CP 985, [Thr+Tyr+Ahp+Phe+MeTyr+Val]Asp+BA] |  | - | - | - | - |  | IC50 ([1]; read-out: Enzyme Inhibition (IC50 [µM]) Chymotrypsin): 0.26 µM; cytotoxic effects on MCF-7 cells (MTT) [3]: no cytotoxic effects
CCCCCC(=O)N[C@@H](CC(=O)O)C(=O)N[C@@H]1C(=O)N[C@@H](CCCNC(=N)N)C(=O)N[C@H]2CC[C@@H](O)N(C2=O)[C@@H](Cc2ccccc2)C(=O)N(C)[C@@H](Cc2ccccc2)C(=O)N[C@@H](C(C)C)C(=O)O[C@@H]1C [CP 990, [Thr+Arg+Ahp+Phe+MePhe+Val]Asp+HA] | - | - | - | - | ** |  | 
CCCC(=O)N[C@@H](CC(=O)O)C(=O)N[C@@H]1C(=O)N[C@@H](CCCNC(=N)N)C(=O)N[C@H]2CC[C@@H](O)N(C2=O)[C@@H](Cc2ccccc2)C(=O)N(C)[C@@H](CCc2ccc(O)cc2)C(=O)N[C@@H](C(C)C)C(=O)O[C@@H]1C [CP 992, [Thr+Arg+Ahp+Phe+MeHty+Val]Asp+BA] |  | - | - | - |  |  | 
CCCC(=O)N[C@@H](CC(=O)O)C(=O)N[C@@H]1C(=O)N[C@@H](Cc2ccc(O)cc2)C(=O)N[C@H]2CC[C@@H](O)N(C2=O)[C@@H](Cc2ccccc2)C(=O)N(C)[C@@H](CCc2ccc(O)cc2)C(=O)N[C@@H](C(C)C)C(=O)O[C@@H]1C [CP 999, [Thr+Tyr+Ahp+Phe+MeHty+Val]Asp+BA] | ** | - |  | - | - |  | 
CCCCCC(=O)N[C@@H](CC(=O)O)C(=O)N[C@@H]1C(=O)N[C@@H](CCCNC(=N)N)C(=O)N[C@H]2CC[C@@H](O)N(C2=O)[C@@H](Cc2ccccc2)C(=O)N(C)[C@@H](Cc2ccc(O)cc2)C(=O)N[C@@H](C(C)C)C(=O)O[C@@H]1C [CP 1006, [Thr+Arg+Ahp+Phe+MeTyr+Val]Asp+HA] | * | - | - | - | ** |  | 
CCCCCC(=O)N[C@@H](CC(=O)O)C(=O)N[C@@H]1C(=O)N[C@@H](Cc2ccc(O)cc2)C(=O)N[C@H]2CC[C@@H](O)N(C2=O)[C@@H](Cc2ccccc2)C(=O)N(C)[C@@H](Cc2ccc(O)cc2)C(=O)N[C@@H](C(C)C)C(=O)O[C@@H]1C [CP 1013, [Thr+Tyr+Ahp+Phe+MeTyr+Val]Asp+HA] | ** | - | - | - | - |  | 
CCCCCCCC(=O)N[C@@H](CC(=O)O)C(=O)N[C@@H]1C(=O)N[C@@H](CCCNC(=N)N)C(=O)N[C@H]2CC[C@@H](O)N(C2=O)[C@@H](Cc2ccccc2)C(=O)N(C)[C@@H](Cc2ccccc2)C(=O)N[C@@H](C(C)C)C(=O)O[C@@H]1C [CP 1018, [Thr+Arg+Ahp+Phe+MePhe+Val]Asp+OA] | - | - | - | - |  |  | 
CCCCCC(=O)N[C@@H](CC(=O)O)C(=O)N[C@@H]1C(=O)N[C@@H](Cc2ccc(O)cc2)C(=O)N[C@H]2CC[C@@H](O)N(C2=O)[C@@H](Cc2ccccc2)C(=O)N(C)[C@@H](CCc2ccc(O)cc2)C(=O)N[C@@H](C(C)C)C(=O)O[C@@H]1C [CP 1027, [Thr+Tyr+Ahp+Phe+MeHty+Val]Asp+HA] |  | - | - | - | - |  | 
CCCCCCCC(=O)N[C@@H](CC(=O)O)C(=O)N[C@@H]1C(=O)N[C@@H](CCCNC(=N)N)C(=O)N[C@H]2CC[C@@H](O)N(C2=O)[C@@H](Cc2ccccc2)C(=O)N(C)[C@@H](CCc2ccc(O)cc2)C(=O)N[C@@H](C(C)C)C(=O)O[C@@H]1C [CP 1048, [Thr+Arg+Ahp+Phe+MeHty+Val]Asp+OA] | * | - | - | - | ** |  | 
CC[C@H](C)[C@H]1C(=O)N(C)[C@@H](Cc2ccc(OC)cc2)C(=O)N[C@@H](C(C)C)C(=O)O[C@@H]2[C@H](C)CN(C(=O)[C@H](CCCNC(N)=O)NC(C)=O)[C@@H]2C(=O)N[C@@H](CC(C)C)C(=O)N[C@H]2CC[C@@H](O)N1C2=O [Insulapeptolide C, [Hmp+Leu+Ahp+Ile+diMeTyr+Val]Cit+Ac] |  |  |  |  |  | 90 | 
CC(=O)N[C@@H](CCC(N)=O)C(=O)N[C@@H]1C(=O)N[C@@H](CC(C)C)C(=O)N[C@H]2CC[C@@H](O)N(C2=O)[C@@H](Cc2ccccc2)C(=O)N(C)[C@@H](Cc2ccc(O)cc2)C(=O)N[C@@H](C(C)C)C(=O)O[C@@H]1C [Nostopeptin BN920, [Thr+Leu+Ahp+Phe+MeTyr+Val]Gln+Ac] |  |  |  |  |  |  | IC50 (Chymotrypsin; read-out: Enzyme Inhibition Chymotrypsin IC50): 110 nM
CC[C@H](C)[C@@H]1NC(=O)[C@H](Cc2ccc(O)cc2)N(C)C(=O)[C@H](Cc2ccccc2)N2C(=O)[C@H](CC[C@H]2O)NC(=O)[C@H](Cc2ccccc2)NC(=O)[C@@H](NC(=O)[C@@H](O)COP(=O)(O)O)[C@@H](C)OC1=O [micropeptin T20] |  |  |  |  |  |  | IC50 (Chymotrypsin; read-out: chymotrypsin IC50): 2.5 nM
Oscillapeptin J |  |  |  |  |  |  | acute effects in small crustaceans (small crustaceans): induced acute effects; harmful effects in mice (mice): did not induce any harmful effects
[Hmp+Leu+Ahp+Ile+MeTyr+Val]Cit+Ac [Insulapeptolide A] |  |  |  |  |  | 140 | 
[Hmp+Leu+Ahp+Ile+diMeTyr+Ile]Cit+Ac [Insulapeptolide D] |  |  |  |  |  | 85 | 
[Hmp+Leu+Ahp+Leu+MeTyr+Ile]Cit+Ac [Insulapeptolide B] |  |  |  |  |  | 100 | 
[Thr+Hph+Ahp+Thr+MePhe+Val]Ser+Pro+BA [Insulapeptolide G] |  |  |  |  |  | 3500 | 
[Thr+Hph+Ahp+Thr+MeTyr+Ile]Ser+Pro+BA [Insulapeptolide E] |  |  |  |  |  | 3200 | 
[Thr+Hph+Ahp+Thr+MeTyr+Ile]Ser+Pro+BA [Insulapeptolide H] |  |  |  |  |  | 2700 | 
[Thr+Hph+Ahp+Thr+MeTyr+Val]Ser+Pro+BA [Insulapeptolide F] |  |  |  |  |  | 1600 | 
